Measured values reported in patent US20240327415A1, “Multicomponent Complexes, Including Salts, Crystalline Forms, and Hydrates and Solvates of ENT1 Inhibitors” (iTeos Belgium SA, priority 2023, published 2024).

Assays:
Assay type in all cases: physicochemical
[1] = Variable Humidity X-Ray Powder Diffraction (VH-XRPD)
Procedure: (§1) In the examples below, VH-XRPD analysis was carried out on a Philips X'Pert Pro Multipurpose diffractometer equipped with a humidity chamber. The samples were scanned between 4 and 36° 2θ using Cu K radiation (α1λ=1.54060 Å; α2=1.54443 Å; β=1.39225 Å; α1: α2 ratio=0.5; most, if not all, B radiation is removed from the beam using an X-ray mirror) running in Bragg-Brentano geometry (step size 0.008° 2θ) using 40 kV/40 mA generator settings. Measurements were carried out from 2-90% RH, with a final measurement taken at 40% RH.
as §1, with “VH-XRPD” for “In the examples below, VH-XRPD”, “radiation (α1 λ=1.54060” for “radiation (α1λ=1.54060”, “Å; α1:α2” for “Å; α1: α2”, “all, β” for “all, B”, “from 6-90% relative humidity (RH),” for “from 2-90% RH,”

[2] = Variable Temperature X-Ray Powder Diffraction (VT-XRPD); design: key: Crystalline Form 3 di(hydrogen sulfate); Crystalline Form 9 di(hydrogen sulfate); Melt/Amorphous
Procedure: as §1, with “VT-XRPD” for “VH-XRPD”, “temperature” for “humidity”, “(α1 λ=1.54060” for “(α1λ=1.54060”, “ambient temperature to an upper limit of 250° C.,” for “2-90% RH,”, “after cooling.” for “at 40% RH.”
VT-XRPD analysis was carried out on a Philips X'Pert Pro Multipurpose diffractometer equipped with a temperature chamber. The samples were scanned between 4 and 36° 2θ using Cu K radiation (α1 λ=1.54060 Å; α2=1.54443 Å; β2=1.39225 Å; α1:α2 ratio=0.5; most, if not all, β radiation is removed from the beam using an X-ray mirror) running in Bragg-Brentano geometry (step size 0.008° 2θ) using 40 kV/40 mA generator settings. Measurements were carried out from ambient temperature to an upper limit of 250° C., with a final measurement taken after cooling.

[3] = hydration mapping studies (slurries at different water activities, Example 17)
Procedure: Example 17—Hydration Mapping Studies-Crystalline Form 2 Compound 1 di(hydrogen sulfate) trihydrate, Crystalline Form 3 Compound 1 di(hydrogen sulfate), and Blend: The effects of different water activities on crystalline Form 2 Compound 1 di(hydrogen sulfate) trihydrate, crystalline Form 3 Compound 1 di(hydrogen sulfate) and a blend of the two were investigated. The “blend” was prepared by mixing crystalline Form 2 Compound 1 di(hydrogen sulfate) trihydrate and crystalline Form 3 Compound 1 di(hydrogen sulfate) in a 1:1 ratio. To the vials containing the required solid material, the appropriate solvent system was added to form slurries. The slurry samples were stirred at the required temperatures during and after the solvent addition. Where dissolution was observed post-solvent addition, additional solid was added to re-saturate the sample. After stirring at the required temperature for 48 hours, the residual solids left in the vials were analyzed by XRPD to assess the solid forms. The analyzed samples were then dried on the XRPD plate under reduced pressure at 40° C. for 24 hr. The dried samples were analyzed by XRPD.

[4] = second Heating, 150° C., hold 30 min
[5] = second Heating, 160° C., hold 30 min

SMILES	VH-XRPD: Conv. To Form 5 at [1]	VH-XRPD: input form retained at [1]	VH-XRPD Results ([1]; Desorption, 6% RH, hold 60 min)	VT-XRPD Results [2, 4]	VT-XRPD Results [2, 5]	solid form by XRPD after slurrying ([3]; acetonitrile:water (aw=0.1) at 50° C., 48 hours)	solid form by XRPD after slurrying ([3]; the rest of the samples, 48 hours)	VH-XRPD: Conv. To Form 6→Form 2 at [1]	relative humidity range in which peaks of crystalline Form 6 Compound 1 di(hydrogen sulfate) are observed in addition [1]	relative humidity range in which the form is retained (VH-XRPD) [1]	relative humidity at which conversion to crystalline Form 2 Compound 1 di(hydrogen sulfate) trihydrate is observed ([1]; Form 3: after extended exposure)	VT-XRPD Results ([2]; Cooling, 30° C., hold 10 min)	VT-XRPD Results ([2]; Heating, 70° C., hold 30 min)	VT-XRPD Results ([2]; Heating, 90° C., hold 30 min)	VT-XRPD Results ([2]; Heating, 105° C., hold 30 min)	VT-XRPD Results ([2]; second Heating, 120° C., hold 30 min)	VT-XRPD Results ([2]; second Heating, 130° C., hold 30 min)	VT-XRPD Results ([2]; second Heating, 140° C., hold 30 min)	solid form by XRPD after slurrying ([3]; solvent systems with aw=0.1, 48 hours)	solid form by XRPD after slurrying ([3]; solvent systems with aw=0.9, 48 hours)
CCCN1CCNCCCNC(=O)c2cc(OC)c(OC)c(c2)OCCC[C@@H](OC(=O)c2cc(OC)c(OC)c(OC)c2)CC1	5 at 6% RH	at 10-80% RH	5, PC	Melt	Melt	conversion to crystalline Form 6 Compound 1 di(hydrogen sulfate)	consistent with crystalline Form 2 Compound 1 di(hydrogen sulfate) trihydrate	–	–	–	–	–	–	–	–	–	–	–	–	–
COc1cc(C(=O)O[C@@H]2CCCOc3cc(cc(OC)c3OC)C(=O)NCCCN3CCCN(CC2)CC3)cc(OC)c1OC.O=S(=O)(O)O.O=S(=O)(O)O [crystalline Form 3 Compound 1 di(hydrogen sulfate)]	–	at 10-60% RH	–	9	9 and Melt	–	–	Form 2 at ≥70% RH	70-80 % RH	2-60 % RH	≥ 80 % RH	9	9	9	9	9	9	9	retained	Conversion to crystalline Form 2 Compound 1 di(hydrogen sulfate) trihydrate
